This is an account of results in patent publication US20220211735A1, “MEDICAMENT AND COMBINATION PRODUCT USED FOR PREVENTING, ALLEVIATING AND/OR TREATING FIBROSIS, AND USE THEREOF” (priority 2019, published 2022).

For data set [1], the system named is COL1A1, TGFβ1, α-smooth muscle actin protein in LX-2 cells. Briefly: Western Blot of main fibrosis markers in LX-2 cells induced by TGFβ1. It counts as cell-based, human. As to conditions: 20 μmol/L, TGF-β1 2 ng/ml, 24 hours. The method, then: (§1) TGFβ1 induced LX-2 cells and medicament C (using Climycin (HB) or Isovalerylspiramycin I (HY)) administration treatment: LX-2 cells were cultured in DMEM, High Glucose, GlutaMAX™ (Gibco10566016) medium containing 10% fetal bovine serum and mixture of 1% […] and 1% penicillin at 37 DEG C and 5% CO2. 1×10^5 cells per well were plated on a 6-well plate. After 24 hours of culture, the original medium in the 6-well plate was removed by a vacuum pump and added with DMEM medium without 10% fetal bovine serum. After starvation for 24 hours, TGF-β1 (2 ng/ml) was added to induce cell, and different concentration gradients of Carrimycin or Isovalerylspiramycin I were added at the same time, the concentrations were 10 μmol/L and 20 μmol/L respectively. A control group (without adding TGF-β1 induction), TGF-β1 induction group (only TGF-β1 induction) and TGF-β1 induction administration group (both TGF-β1 induction and medicament C treatment) were set.
After the cells were induced by TGFβ1 and continued to be cultured for 24 hours, 1 ml of Ripa lysis solution (containing 1% PMSF) was added to each well of the 6-well plate to extract the protein. And the protein concentration was determined by the BCA method. The sample was loaded at 25 μg/20 μl per well. […]
In general terms: A western blot detects proteins with antibodies after separation by electrophoresis.

Data set [2] concerns type I collagen α1 promoter COL1A1P. Description: COL1A1 promoter-luciferase reporter gene activity in LX2-COL cells. It counts as cell-based, human. As to conditions: 24 hours. As to the method:
The constructed monoclonal cells LX2-COL stably expressing the type I collagen al promoter COL1A1P were spread on a 96-well plate with 2×10^4 cells per well. After the cell confluence is about 90%, different concentrations of medicament C (using Carrimycin or Isovalerylspiramycin I) were added, and each group of experiments has 4 replicate holes. Follow the instructions of Bright-Glo™ Luciferase Assay System, the medium in wells were removed after 24 hours, and 50 μl/well of any medium was added to each well. 50 μl of luciferase substrate was added to each well, and detection was performed after 2 min.
(A reporter such as luciferase makes a cellular process visible.)

Data set [3] has as its system COL1A1, TGFB1, ACTA2, MMP2 mRNA in lung fibroblasts MRC-5. Briefly: Real-time PCR of main fibrosis markers in lung fibroblasts MRC-5 induced by TGFβ1. The format is cell-based. As to conditions: TGF-β1 3 ng/ml, 24 hours. The method, then: Method for TGFβ1 inducing lung fibroblasts MRC-5 and administrating Carrimycin or Isovalerylspiramycin I comprises: MRC-5 was cultured in a MEM (Gibco 11095-080) culture medium containing 10% fetal bovine serum, a mixture of 1% penicillin and 1% streptomycin and 1% non-essential amino acids at 37 DEG C and 5% CO2, and was plated in a 6-well according to 3×10^5 cells per well. After culturing for 24 hours, the original culture medium in the 6-well plate was removed by a vacuum pump, and MEM culture medium without 10% fetal bovine serum was added to be starvation culture for 24 hours. And then TGF-β1 (3 ng/ml) induction was added, and at the same time different concentration gradients of Carrimycin and Isovalerylspiramycin I were added. The concentrations were 10 μmol/L, 20 μmol/L, 40 μmol/L. The following groups were set, control group (without adding TGF-β1 induction), TGF-β1 induction group (only TGF-β1 induction is added) and TGF-β1 induction administration group (both adding TGF-β1 induction and treating with Carrimycin or Isovalerylspiramycin I).
After culturing for 24 hours, the culture medium was discarded, and the Total RNA of MRC-5 cells were extracted according to the operation steps of the TRIzol instructions. According to the operation steps of the instructions of Roche Transcriptor First Strand cDNA Synthesis Kit, Total RNA of […] was reversely transcribed into cDNA. The cDNA, sterile water, Roche FastStart Universal Probe Master (Rox) and ABI TaqMan probes (GAPDH, COL1A1, TGFB1, ACTA2, MMP2) were prepared into a 20 μl reaction system, and the ABI 7500 Fast Real-time PCR System was used for detection. GAPDH was used as an internal control to analyze the results.

For data set [4], the system named is COL1A1, TGFB1, ACTA2 mRNA in LX-2 cells. Briefly: Real-time PCR of main fibrosis markers in LX-2 cells induced by TGFβ1. The format is cell-based, human. As to conditions: TGF-β1 2 ng/ml, 24 hours. The method, then:
as §1
After culturing for 24 hours, the medium was discarded, and the total RNA of LX-2 cells were extracted according to the TRIzol instructions. Following the instructions of Roche Transcriptor First Strand cDNA Synthesis Kit, the LX-2 total RNA were to reverse transcribed into cDNA. […]

The test system of data set [5] is COL1A1, TGFB1, ACTA2, MMP2 mRNA in skin fibroblasts CCC-ESF-1. The format is cell-based. As to conditions: CCC-ESF-1, 20 and 40 μmol/L, TGF-β1 5 ng/ml, 24 hours. The method, then:
Method for TGFβ1 inducing skin fibroblasts CCC-ESF-1 and administrating Carrimycin and Isovalerylspiramycin I comprises: CCC-ESF-1 was cultured in DMEM, High Glucose, GlutaMAX™ (Gibco 10566016) culture medium containing 10% fetal bovine serum, mixture of 1% penicillin and 1% streptomycin at 37 DEG C and 5% CO2, and was plated in a 6-well according to 3×10^5 cells per well. After culturing for 24 hours, the original culture medium in the 6-well plate was removed by a vacuum pump, and DMEM culture medium without 10% fetal bovine serum was added to be starvation culture for 24 hours. And then TGF-β1 (5 ng/ml) induction was added, and at the same time different concentration gradients of Carrimycin and Isovalerylspiramycin I were added. The concentrations were 20 μmol/L and 40 μmol/L. The following groups were set, control group (without adding TGF-β1 induction), TGF-β1 induction group (only TGF-β1 induction is added) and TGF-β1 induction administration group (both adding TGF-β1 induction and treating with Carrimycin or Isovalerylspiramycin I).
After culturing for 24 hours, the culture medium was discarded, and the Total RNA of […] were extracted according to the operation steps of the TRIzol instructions. According to the operation steps of the instructions of Roche Transcriptor First Strand cDNA Synthesis Kit, Total RNA of LX-2 was reversely transcribed into cDNA. […]

The conditions of data set [6]: in vivo; cited from earlier work.

On to `CO[C@@H]1[C@@H](O[C@@H]2O[C@H](C)[C@@H](O[C@H]3C[C@@](C)(O)[C@@H](OC(=O)CC(C)C)[C@H](C)O3)[C@H](N(C)C)[C@H]2O)[C@@H](CC=O)C[C@@H](C)[C@@H](O[C@H]2CC[C@H](N(C)C)[C@@H](C)O2)/C=C/C=C/C[C@@H](C)OC(=O)C[C@H]1O` [Isovalerylspiramycin I], for which the “expression of marker proteins COL1A1, TGFβ1, α-smooth muscle actin” value in data set [1] is on record as “significantly inhibited”. The “luciferase luminescence (COL1A1 promoter activity)” value in data set [2] (40 μM) is “decreased most significantly”. Further, the “inhibitory effect on the activity of the COL1A1 promoter” value in data set [2] (LX2-COL cells, luciferase) is recorded as “significant inhibitory effect”. Also, in data set [3] (MRC-5, 40 μmol/L), the “effect of inhibiting COL1A1, TGFB1, and ACTA2 at the mRNA level” value was “the best”; the “effect of inhibiting COL1A1 at the mRNA level” value is on record as “the best”. Also, the “expression of COL1A1 (mRNA)” value in data set [3] (MRC-5, with the increase of the dose (10, 20, 40 μmol/L)) is on record as “decreases”. In addition, the “inhibitory effect on COL1A1, TGFB1, and ACTA2 at the mRNA level” value in data set [4] (20 μmol/L) is recorded as “best inhibitory effect”. Further, the “expression of COL1A1, TGFB1, and ACTA2 (mRNA)” value in data set [4] (with the increase of the doses (10 and 20 μmol/L)) was “decreased”. Also, in data set [5], the “inhibition of COL1A1, TGFB1, ACTA2, and MMP2 (mRNA)” value is reported as “significantly inhibit”.

Turning to Carrimycin, the T1/2β in data set [6] is 23 to 27 h.
